Measurements: patent US11701372B2, “Inhalation formulations of 1'-cyano substituted carba-nucleoside analogs” (priority 2020, dated 2023)
Like-named read-outs stand apart in the source and are kept apart here.

How the values were obtained:
[1] = type: physicochemical; conditions: for % assay/degs: T = 0
Procedure: For each condition, samples were staged at ambient and refrigerated conditions. Samples were analyzed for % assay/degs, appearance, reconstitution time, pH, and compared to T=0. The structures of the key impurities/metabolites are shown below.

[2] = In use testing of reconstituted solutions in IV bags and IV tubings; type: physicochemical
Source text: The IV bags and IV tubings were sampled over time and tested for % assay/degradation.

With `N#C[C@@]1(c2ccc3c(N)ncnn23)O[C@H](COP(=O)(O)Oc2ccccc2)[C@@H](O)[C@H]1O` [Compound F] the “% assay/degs, difference from T = 0” value ([1]; pH 1.8, 2-8° C., 2 h) was 0.02%, the “% assay/degs, difference from T = 0” value ([1]; pH 1.8, 2-8° C., 3 h) was 0.03% and the “% assay/degs, difference from T = 0” value ([1]; pH 1.8, 2-8° C., 8 h) was 0.08%. For the same compound, the “% assay/degs, difference from T = 0” value ([1]; pH 1.8, 2-8° C., 24 h) was 0.20%, the “% assay/degs, difference from T = 0” value ([1]; pH 1.8, 2-8° C., 48 h) was 0.39% and the “% assay/degs, difference from T = 0” value ([1]; pH 1.8, Ambient, 1 h) was 0.04%. For the same compound, the “% assay/degs, difference from T = 0” value ([1]; pH 1.8, Ambient, 2 h) was 0.08%, the “% assay/degs, difference from T = 0” value ([1]; pH 1.8, Ambient, 3 h) was 0.13% and the “% assay/degs, difference from T = 0” value ([1]; pH 1.8, Ambient, 8 h) was 0.34%. The “% assay/degs, difference from T = 0” value ([1]; pH 1.8, Ambient, 24 h) was 1.05%, the “% assay/degs, difference from T = 0” value ([1]; pH 1.8, Ambient, 48 h) was 2.09% and the “% assay/degs” value ([1]; pH 1.8) was 0.08%. The “% assay/degs, difference from T = 0” value ([1]; pH 2.0, 2-8° C., 2 h) was 0.02%, the “% assay/degs, difference from T = 0” value ([1]; pH 2.0, 2-8° C., 3 h) was 0.02% and the “% assay/degs, difference from T = 0” value ([1]; pH 2.0, 2-8° C., 8 h) was 0.06%. For the same compound, the “% assay/degs, difference from T = 0” value ([1]; pH 2.0, 2-8° C., 24 h) was 0.13%, the “% assay/degs, difference from T = 0” value ([1]; pH 2.0, 2-8° C., 48 h) was 0.25% and the “% assay/degs, difference from T = 0” value ([1]; pH 2.0, Ambient, 1 h) was 0.03%. For the same compound, the “% assay/degs, difference from T = 0” value ([1]; pH 2.0, Ambient, 2 h) was 0.05%, the “% assay/degs, difference from T = 0” value ([1]; pH 2.0, Ambient, 3 h) was 0.08% and the “% assay/degs, difference from T = 0” value ([1]; pH 2.0, Ambient, 8 h) was 0.22%. The “% assay/degs, difference from T = 0” value ([1]; pH 2.0, Ambient, 24 h) was 0.68%, the “% assay/degs, difference from T = 0” value ([1]; pH 2.0, Ambient, 48 h) was 1.37% and the “% assay/degs” value ([1]; pH 2.0) was 0.06%. The “% assay/degs, difference from T = 0” value ([1]; pH 3.5, 2-8° C., 2 h) was 0.00%, the “% assay/degs, difference from T = 0” value ([1]; pH 3.5, 2-8° C., 8 h) was 0.00% and the “% assay/degs, difference from T = 0” value ([1]; pH 3.5, 2-8° C., 24 h) was 0.00%. For the same compound, the “% assay/degs, difference from T = 0” value ([1]; pH 3.5, 2-8° C., 48 h) was 0.01%, the “% assay/degs, difference from T = 0” value ([1]; pH 3.5, 2-8° C., 72 h) was 0.01% and the “% assay/degs, difference from T = 0” value ([1]; pH 3.5, 2-8° C., 96 h) was 0.02%. For the same compound, the “% assay/degs, difference from T = 0” value ([1]; pH 3.5, 2-8° C., 168 h) was 0.03%, the “% assay/degs, difference from T = 0” value ([1]; pH 3.5, Ambient, 2 h) was 0.00% and the “% assay/degs, difference from T = 0” value ([1]; pH 3.5, Ambient, 8 h) was 0.01%. For the same compound, the “% assay/degs, difference from T = 0” value ([1]; pH 3.5, Ambient, 24 h) was 0.03%, the “% assay/degs, difference from T = 0” value ([1]; pH 3.5, Ambient, 48 h) was 0.05% and the “% assay/degs, difference from T = 0” value ([1]; pH 3.5, Ambient, 72 h) was 0.08%. The “% assay/degs, difference from T = 0” value ([1]; pH 3.5, Ambient, 96 h) was 0.11%, the “% assay/degs, difference from T = 0” value ([1]; pH 3.5, Ambient, 168 h) was 0.19% and the “% assay/degs” value ([1]; pH 3.5) was 0.02%. The “% assay/degs, difference from T = 0” value ([1]; pH 3.8, 2-8° C., 7.2 h) was 0.00%, the “% assay/degs, difference from T = 0” value ([1]; pH 3.8, 2-8° C., 24 h) was 0.00% and the “% assay/degs, difference from T = 0” value ([1]; pH 3.8, 2-8° C., 96 h) was 0.01%. For the same compound, the “% assay/degs, difference from T = 0” value ([1]; pH 3.8, 2-8° C., 168 h) was 0.01%, the “% assay/degs, difference from T = 0” value ([1]; pH 3.8, Ambient, 7.2 h) was 0.01% and the “% assay/degs, difference from T = 0” value ([1]; pH 3.8, Ambient, 24 h) was 0.02%. For the same compound, the “% assay/degs, difference from T = 0” value ([1]; pH 3.8, Ambient, 96 h) was 0.06%, the “% assay/degs, difference from T = 0” value ([1]; pH 3.8, Ambient, 168 h) was 0.10% and the “% assay/degs” value ([1]; pH 3.8) was 0.02%. The “% assay/degs, difference from T = 0” value ([1]; pH 4.0, 2-8° C., 7.2 h) was 0.00%, the “% assay/degs, difference from T = 0” value ([1]; pH 4.0, 2-8° C., 24 h) was 0.00% and the “% assay/degs, difference from T = 0” value ([1]; pH 4.0, 2-8° C., 96 h) was 0.01%. For the same compound, the “% assay/degs, difference from T = 0” value ([1]; pH 4.0, 2-8° C., 168 h) was 0.01%, the “% assay/degs, difference from T = 0” value ([1]; pH 4.0, Ambient, 7.2 h) was 0.00% and the “% assay/degs, difference from T = 0” value ([1]; pH 4.0, Ambient, 24 h) was 0.01%. The “% assay/degs, difference from T = 0” value ([1]; pH 4.0, Ambient, 96 h) was 0.04%, the “% assay/degs, difference from T = 0” value ([1]; pH 4.0, Ambient, 168 h) was 0.07% and the “% assay/degs” value ([1]; pH 4.0) was 0.02%. For the same compound, the “% assay/degradation” value ([2]; 30 mg (IV Bag), 2-8° C. 24 h) was 0.07 % w/w, the “% assay/degradation” value ([2]; 30 mg (IV Bag), 2-8° C. 48 h) was 0.06 % w/w and the “% assay/degradation” value ([2]; 30 mg (IV Bag), Ambient 4 h) was 0.06 % w/w. For the same compound, the “% assay/degradation” value ([2]; 30 mg (IV Bag), Ambient 8 h) was 0.07 % w/w, the “% assay/degradation” value ([2]; 30 mg (IV Bag), Ambient 24 h) was 0.08 % w/w and the “% assay/degradation” value ([2]; 30 mg (IV Bag), T = 0 (2-8° C. series)) was 0.06 % w/w. The “% assay/degradation” value ([2]; 30 mg (IV Tube), Ambient 6 Hours) was 0.06 % w/w, the “% assay/degradation” value ([2]; 30 mg in 100 mL 0.9% Saline (IV Bag), T = 0 (Ambient series)) was 0.06 % w/w and the “% assay/degradation” value ([2]; 200 mg (IV Bag), 2-8° C. 24 h) was 0.06 % w/w. For the same compound, the “% assay/degradation” value ([2]; 200 mg (IV Bag), 2-8° C. 48 h) was 0.06 % w/w, the “% assay/degradation” value ([2]; 200 mg (IV Bag), Ambient 4 h) was 0.06 % w/w and the “% assay/degradation” value ([2]; 200 mg (IV Bag), Ambient 8 h) was 0.06 % w/w. For the same compound, the “% assay/degradation” value ([2]; 200 mg (IV Bag), Ambient 24 h) was 0.08 % w/w, the “% assay/degradation” value ([2]; 200 mg (IV Bag), T = 0 (2-8° C. series)) was 0.06 % w/w and the “% assay/degradation” value ([2]; 200 mg (IV Tube), Ambient 6 h) was 0.06 % w/w. For the same compound, the “% assay/degradation” value ([2]; 200 mg in 100 mL 0.9% Saline (IV Bag), T = 0 (Ambient series)) was 0.06 % w/w.
